Reference: patent publication US7425568B2, “Compounds, which are potent inhibitors of Na+ /Ca2+ exchange mechanism and are useful in the treatment of arrhythmias” (Orion Corporation, priority 2001, dated 2008)

Tested on: ouabain-induced arrhythmias in guinea-pig papillary muscles
Assay: Inhibition of ouabain-induced arrhythmias (aftercontractions) in isolated guinea-pig papillary muscles
Conditions: for maximum amplitude of aftercontractions #1: n=5, vehicle 143±54 mg
Procedure: The effects of the compounds of the invention were tested on ouabain-induced arrhythmias in guinea-pig papillary muscles.
Guinea-pig papillary muscles were mounted into horizontal muscle cuvette. A hook connected to force transducer was attached to another end of the muscle. Muscle preparations were electrically paced at 1 Hz with field stimulation via platinum electrodes. Modified Tyrode solution was used for superfusion of muscle preparations. The composition of the Tyrode solution was the following (mM): NaCl 135, MgCl2×6H2O 1, KCl 5, CaCl2×2H2O 2, NaHCO3 15, Na2HPO4×2H2O 1, and glucose 10. The Tyrode solution was gassed with carbogen (95% O2, 5% CO2) to set pH at 7.4. Experiments were carried out at 37° C. Acquisition and analysis of twitch tensions with Action Potential and Force Measurement System (ACFO v1.0, Fision Ltd, Finland).
Ouabain by blocking of sodium-potassium ATPase increase intracellular sodium which is changed for calcium via NCX. Increased intracellular calcium is leading to overload of sarcoplasmic reticulum (SR) and spontaneous calcium release from SR inducing delayed […] (DADs). Equivalence for DADs in force signal is aftercontractions (ACs) which are seen as spontaneous twitches after the pacing controlled twitch.
The compounds of the invention delayed appearance and decreased amplitude of aftercontractions.

| Compound | maximum amplitude of aftercontractions #1 (10 μM, p=0.027) | appearance of aftercontractions (time to appearance) (30 μM, mean±SD, n=5, vehicle 25±8.9 min, p=0.013, paced at 1 Hz, 37° C) | maximum amplitude of aftercontractions #1 (30 μM, p=0.008) |
| --- | --- | --- | --- |
| CS(=O)(=O)Nc1ccc(Oc2ccc3c(c2)CCC(c2cccc(F)c2)O3)nc1 (stereo not drawn) [Example 67, N-{6-[2-(3-Fluorophenyl)chroman-6-yloxy]pyridin-3-yl}methane Sulfonamide] | 88 ± 20 mg |  |  |
| CC(=O)Nc1ccc(Oc2ccc3c(c2)CCC(c2ccccc2)O3)nc1 (stereo not drawn) [Example 27] |  | 38 ± 7.5 min | 74 ± 16 mg |
